Measurements reported in patent US20150139987A1, “TREATMENT OF HOMOZYGOUS FAMILIAL HYPERCHOLESTEROLEMIA” (CymaBay Therapeutics, Inc., priority 2013, published 2015).
Read-outs that look alike come from different tables or passages of the source. Values belong to the molecule of their own block, whether it stands above or below them.

Assays:
subjects with HoFH = experiment: Example 1: study with MBX-8025 in HoFH; type: in vivo, human; conditions: MBX-8025 L-lysine dihydrate salt 50, 100, or 200 mg/day
Description: Subjects are permitted their usual other medications, including lipid-lowering treatments. […] MRIs of the subjects' livers are taken every 4 weeks during the study and 4 weeks after study completion, to determine hepatic fat. At each visit, after a 12-hour fast, blood is drawn and urine collected; and a standard metabolic panel, complete blood count, and standard urinalysis are performed. Blood is analyzed for TC, HDL-C, LDL-C, VLDL-C, TG, and apoB. The subjects also maintain health diaries, which are reviewed at each visit.

[1] = biological target: T1, peroxisome proliferator-activated receptor-δ (PPARδ) (Homo sapiens, UniProt Q03181); experiment: PPARδ agonist potency; type: biochemical
T1 sequence (Q03181 1-441): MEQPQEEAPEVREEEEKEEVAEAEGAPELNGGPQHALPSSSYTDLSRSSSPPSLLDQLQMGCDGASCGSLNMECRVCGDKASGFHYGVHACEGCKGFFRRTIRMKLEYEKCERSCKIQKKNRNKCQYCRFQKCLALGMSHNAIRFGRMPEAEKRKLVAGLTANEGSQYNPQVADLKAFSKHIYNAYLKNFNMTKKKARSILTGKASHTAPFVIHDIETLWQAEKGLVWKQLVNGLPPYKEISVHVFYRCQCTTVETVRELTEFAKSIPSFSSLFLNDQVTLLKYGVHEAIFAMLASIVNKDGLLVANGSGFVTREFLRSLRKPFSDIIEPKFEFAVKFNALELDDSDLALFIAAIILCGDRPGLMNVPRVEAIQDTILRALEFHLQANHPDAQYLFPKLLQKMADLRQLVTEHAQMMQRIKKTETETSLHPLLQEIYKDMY
From the text: (§1) PPARδ activation stimulates fatty acid oxidation and utilization, improves plasma lipid and lipoprotein metabolism, glucose utilization, and mitochondrial respiration, and preserves stem cell homeostasis.

LDL particle size = conditions: pattern B <25.75 nm, I 25.75-26.34 nm, A >26.34 nm; US 2010-0152295; cited from earlier work
[2] = test system: knockout mice lacking LDLR; experiment: Lipid lowering in knockout mice lacking LDLR; type: in vivo
PPARα = biological target: T2, PPARα (Homo sapiens, UniProt Q07869); experiment: Specificity for PPARδ compared with PPARα; type: biochemical
T2 sequence (Q07869 1-468): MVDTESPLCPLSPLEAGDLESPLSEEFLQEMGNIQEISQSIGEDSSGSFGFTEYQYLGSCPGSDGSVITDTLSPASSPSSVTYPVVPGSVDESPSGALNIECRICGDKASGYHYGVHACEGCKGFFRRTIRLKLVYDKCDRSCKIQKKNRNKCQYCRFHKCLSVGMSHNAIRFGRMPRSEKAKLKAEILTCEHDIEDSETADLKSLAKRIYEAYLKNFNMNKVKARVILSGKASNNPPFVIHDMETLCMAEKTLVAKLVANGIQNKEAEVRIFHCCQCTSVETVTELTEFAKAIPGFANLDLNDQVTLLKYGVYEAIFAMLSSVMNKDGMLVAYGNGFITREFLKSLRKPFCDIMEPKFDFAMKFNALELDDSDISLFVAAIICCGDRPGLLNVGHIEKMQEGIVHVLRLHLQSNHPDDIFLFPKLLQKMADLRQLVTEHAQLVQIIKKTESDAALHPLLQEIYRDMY
From the text: as §1

[3] = test system: subjects with mixed dyslipidemia; conditions: cited from earlier work; for reduction of LDL-C: 100 mg/day; for reduction of alkaline phosphatase: control group 4%
[4] = test system: healthy volunteers with hypercholesterolemia; conditions: cited from earlier work
patients with HoFH [5] = conditions: cited from earlier work
patients with HeFH [6] = conditions: cited from earlier work
[7] = test system: patients with hypercholesterolemia; conditions: week 12; sc 50, 100, 150 mg twice monthly or 200, 300 mg once monthly; cited from earlier work
[8] = test system: patients with HoFH, HeFH, severe hyperlipidemia, high-risk coronary heart disease; conditions: human, in vivo; cited from earlier work
patients with HoFH [9] = conditions: added to maximally tolerated lipid lowering medications in HoFH patients; cited from earlier work
[10] = in vivo, cited from earlier work
apoB mRNA = conditions: HepG2, Hep3B, human and cynomolgus monkey primary hepatocytes; cited from earlier work
patients with HeFH [11] = conditions: cited from earlier work; remark: listed apart in the source
[12] = test system: hypercholesterolemic subjects; conditions: cited from earlier work
[13] = alone and in combination with atorvastatin, 8 weeks

EC50 [1]: 2 nM | specificity for PPARδ compared with PPARα (PPARα): > 600 fold
Molecule: CCO[C@H](COc1ccc(C(F)(F)F)cc1)CSc1ccc(OCC(=O)O)c(C)c1 [MBX-8025, (R)-2-(4-((2-ethoxy-3-(4-(trifluoromethyl)phenoxy)propyl)thio)-2-methylphenoxy)acetic acid]
effect on TC, LDL-C, VLDL-C, TG, apoB and HDL-C (subjects with HoFH): dose-dependent lowering of TC, LDL-C, VLDL-C, TG and apoB, and raising of HDL-C | LDL particle size pattern conversion (LDL particle size): converts LDL particle size pattern I to pattern A; and from pattern B to pattern I or A | LDLR dependence of LDL-C lowering [2]: do not require an effective LDLR to lower LDL-C and improve other lipid parameters | reduction of LDL-C ([3]; tertile with the highest starting LDL-C levels (187-205 mg/dL)): 35% | reduction of LDL-C ([3]; total population treated): 22% | decrease of LDL-S/VS ([3]; 8 weeks): 40-48% | increase of LDL-L ([3]; 8 weeks): 34-44% | reduction of apoB 100 compared to placebo ([3]; MBX-8025 50 or 100 mg alone and in combination with atorvastatin 20 mg, 8 weeks): 20-38% | raising of HDL-C [3, 13]: 1-12% | reduction of LDL compared to placebo [3, 13]: 18-43% | reduction of free fatty acids compared to placebo [3, 13]: 16-28% | reduction of high-sensitivity C-reactive protein compared to placebo [3, 13]: 43-72% | reduction of non-HDL-C compared to placebo [3, 13]: 18-41% | reduction of triglycerides compared to placebo [3, 13]: 26-30% | reduction of γ-glutamyl transpeptidase ([3]; control group 3%): 24-28% | reduction of alkaline phosphatase [3]: 32-43% | insulin sensitivity (HOMA-IR, fasting plasma glucose, insulin) ([3]; in vivo): increases insulin sensitivity | reduction of the percentage of subjects meeting the criteria for metabolic syndrome ([3]; in vivo): > 2 fold | safety and tolerability ([3]; in vivo): safe and generally well-tolerated | serum aminotransferases ([3]; in vivo): reducing serum aminotransferases | waist circumference and lean body mass ([3]; in vivo): trends towards a decrease in waist circumference and increase in lean body mass

Molecule: CC(C)c1c(C(=O)Nc2ccccc2)c(-c2ccccc2)c(-c2ccc(F)cc2)n1CC[C@@H](O)C[C@@H](O)CC(=O)O [atorvastatin, reference compound]
decrease of LDL-L ([3]; 8 weeks): 30% | decrease of LDL-S/VS ([3]; 8 weeks): 25% | increase of γ-glutamyl transpeptidase ([3]; 8 weeks): 2% | reduction of alkaline phosphatase [3]: 6%

Molecule: O=C(NC1CCN(CCCCC2(C(=O)NCC(F)(F)F)c3ccccc3-c3ccccc32)CC1)c1ccccc1-c1ccc(C(F)(F)F)cc1 [lomitapide, N-(2,2,2-trifluoroethyl)-9-(4-(4-(4′-(trifluoromethyl)-[1,1′-biphenyl]-2-ylcarboxamido)piperidin-1-yl)butyl)-9H-fluorene-9-carboxamide]
reduction of LDL-C [4]: up to 65% | patients reporting gastrointestinal adverse reactions (patients with HoFH [5]; 27 of 29 patients, Phase 3 trial): 93% | patients reporting vomiting, dyspepsia and abdominal pain (each) (patients with HoFH [5]; AEs reported by 8 or more of 29 patients): ≥ 28% | patients reporting diarrhea (patients with HoFH [5]; Phase 3 trial, 29 patients): 79% | patients reporting nausea (patients with HoFH [5]; Phase 3 trial, 29 patients): 65% | patients who discontinued the trial for AEs (patients with HoFH [5]; of the 29 patients): Five

Molecule: Alirocumab: anti-PCSK9 antibody
reduction in LDL-C (patients with HeFH [6]; 150 mg/2 weeks sc): 68% | reduction in LDL-C (patients with HeFH [6]; 150 mg/4 weeks sc): 29% | tolerability (patients with HeFH [6]; in vivo): well tolerated

Molecule: Bococizumab: anti-PCSK9 antibody
effect on LDL-C [7]: significant reductions in LDL-C at week 12

Molecule: mipomersen
alanine aminotransferase ≧3× upper limit of normal [8]: 10% | aspartate aminotransferase ≧3× upper limit of normal [8]: 16% | flu-like symptoms (such as fatigue, fever, and chills) [8]: 30% | injection site reactions [8]: 84% | patients who discontinued for an adverse event or serious adverse event [8]: 18% | patients who discontinued for other reasons [8]: 4% | patients who discontinued for patient withdrawal [8]: 6% | reduction of LDL-C (patients with HoFH [9]): 25% | absorption time to maximum concentration ([10]; sc): 3 to 4 h | distribution half-life ([10]; sc): 2 to 5 h | elimination half-life ([10]; sc): 1-2 months | time to steady-state plasma trough [10]: ≤ 6 months | effect on apoB mRNA, protein, and secreted protein (apoB mRNA): selectively reduced apoB mRNA, protein, and secreted protein in a concentration- and time-dependent manner

B1: evolocumab: anti-PCSK9 antibody (antibody, chains of the INN, looked up, V domains shown)
VH: EVQLVQSGAEVKKPGASVKVSCKASGYTLTSYGISWVRQAPGQGLEWMGWVSFYNGNTNYAQKLQGRGTMTTDPSTSTAYMELRSLRSDDTAVYYCARGYGMDVWGQGTTVTVSS
VL: ESALTQPASVSGSPGQSITISCTGTSSDVGGYNSVSWYQQHPGKAPKLMIYEVSNRPSGVSNRFSGSKSGNTASLTISGLQAEDEADYYCNSYTSTSMVFGGGTKLTVL
effect on LDL-C relative to placebo (patients with HeFH [11]; 140 mg every 2 weeks or 420 mg every month sc): Significant reductions in LDL-C | muscle-related AEs (patients with HeFH [11]; in vivo): 5% | nasopharyngitis (patients with HeFH [11]; in vivo): 9% | tolerability (patients with HeFH [11]; in vivo): well tolerated | reduction of LDL-C levels [12]: more than 50%
